Assay results as given in patent publication US20230382923A1, “FUSED TETRACYCLIC QUINAZOLINE DERIVATIVES AS INHIBITORS OF ERBB2” (EnLiven Therapeutics, Inc., priority 2021, published 2023).

What was measured:
[1] = molecular target: phosphorylated ERBB2 (pERBB2) (Homo sapiens (Human), UniProt P04626); assay: Detection of phosphorylated ERBB2 (pERBB2) by ELISA in BT-474 cells; format: cell-based; conditions: four hours incubation with compound
Description: BT-474 cells were seeded into a 96-well at 2.0*10^4cells/100 μl/well. Compounds were dissolved and serially diluted in DMSO. The compounds were then were added, mixed, and incubated for four hours at 37° C., 5% CO2. […] Following the four hour incubation with compounds, cell lysates were prepared. Plates were centrifuged for 5 min at 3000 RPM, and supernatant was removed from each well. Cells were washed 3 times by resuspension in 150 μl PBS, followed by centrifugation and removal of the supernatant, as above. 100 μl of cell lysis buffer (Boston BioProducts, cat #BP-115D) supplied with 1×complete ULTRA cocktail inhibitor (Thermo ScientificTM, cat #78443) was then added to the washed cells. Cells were incubated with lysis buffer for 1 hour at 4° C., and then stored at -80° C. Enzyme-linked immunosorbent assays (ELISA) were performed to measure phosphorylated ERBB2 levels. […] The next day, plates were washed with PBS+0.05% Tween20 (PBST). 150 μl of 5% BSA blocking solution was added for 1 hour at room temperature, with shaking. Plates were washed with PBST. Cell lysates were thawed and 100 μl of lysate was added to the ELISA plate. The plates were incubated for 2 hours at room temperature, with shaking. ELISA plates were then washed with PBST and 100 μl of an HRP-labeled detection antibody that binds phosphorylated tyrosine (R&D Systems, cat #841913) was added to each well. Plates were incubated for 1 hour at room temperature, with shaking. Plates were then washed with PBST, and 100 μl TMB substrate solution (R&D Systems, cat #DY999) was added. Plate were incubated in the dark for 20 minutes at room temperature. 50 μl of Stop solution (R&D Systems, cat #DY994) (50 μl) was added to each well and mixed. […] The remaining kinase activity by calculated using the following formula: % Relative activity=100×([…]). The low and high control values (“LC” and “HC”) were generated from lysate from wells without cells or with cells treated with 0.1% DMSO, respectively.

[2] = molecular target: phosphorylated EGFR (pEGFR) (Homo sapiens (Human), UniProt P00533); assay: Detection of phosphorylated EGFR (pEGFR) by AlphaLISA in A431 cells; format: cell-based; conditions: A431 cells (10% FBS), 4 hours incubation, EGF 30 ng/mL for 10 minutes
phosphorylated EGFR (pEGFR), sequence (P00533 25-1210): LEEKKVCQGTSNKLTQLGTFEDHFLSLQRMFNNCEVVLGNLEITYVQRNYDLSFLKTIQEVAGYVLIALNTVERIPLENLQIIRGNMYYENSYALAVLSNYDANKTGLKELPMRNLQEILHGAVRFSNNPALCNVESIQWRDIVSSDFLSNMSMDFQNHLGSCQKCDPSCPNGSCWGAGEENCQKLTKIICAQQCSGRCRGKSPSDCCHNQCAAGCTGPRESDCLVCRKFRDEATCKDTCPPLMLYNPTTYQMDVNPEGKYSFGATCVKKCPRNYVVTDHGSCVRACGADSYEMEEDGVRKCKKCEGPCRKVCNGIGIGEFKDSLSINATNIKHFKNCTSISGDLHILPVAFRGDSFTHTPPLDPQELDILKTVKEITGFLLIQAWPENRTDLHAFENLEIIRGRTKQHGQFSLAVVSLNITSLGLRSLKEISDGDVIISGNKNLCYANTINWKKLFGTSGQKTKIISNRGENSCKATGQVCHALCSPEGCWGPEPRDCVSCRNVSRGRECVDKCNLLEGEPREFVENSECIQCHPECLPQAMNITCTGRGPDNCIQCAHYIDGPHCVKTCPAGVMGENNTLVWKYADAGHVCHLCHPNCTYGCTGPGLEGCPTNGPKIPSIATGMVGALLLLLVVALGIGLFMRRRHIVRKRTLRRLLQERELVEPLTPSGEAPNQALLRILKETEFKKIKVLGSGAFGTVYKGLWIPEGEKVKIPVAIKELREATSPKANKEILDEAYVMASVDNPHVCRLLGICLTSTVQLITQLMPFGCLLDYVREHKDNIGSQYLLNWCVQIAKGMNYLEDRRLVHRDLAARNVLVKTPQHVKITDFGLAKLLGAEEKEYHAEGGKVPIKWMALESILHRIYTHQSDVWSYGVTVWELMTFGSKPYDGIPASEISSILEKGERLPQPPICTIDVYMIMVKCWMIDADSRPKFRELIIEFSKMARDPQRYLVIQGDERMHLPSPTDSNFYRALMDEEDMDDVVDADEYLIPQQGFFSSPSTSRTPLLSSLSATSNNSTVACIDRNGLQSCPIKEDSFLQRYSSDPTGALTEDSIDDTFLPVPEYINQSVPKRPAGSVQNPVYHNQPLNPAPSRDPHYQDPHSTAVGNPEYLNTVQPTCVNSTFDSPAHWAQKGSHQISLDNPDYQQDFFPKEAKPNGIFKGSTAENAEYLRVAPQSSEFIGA
Description: […] were performed to measure phosphorylated EGFR levels using A431 cells (10% FBS). A431 (1.0*10^4cells/40 μl/well) cells were seeded in 384 well. Compounds were dissolved in DMSO, serially diluted in DMSO and then were added, mixed, and incubated for 4 hours at 37° C., […]. Following the 4-hours incubation, cells were stimulated for 10 minutes with EGF (Invitrogen, cat #PHG0311) at a final concentration of 30 ng/mL in the incubator. The media was aspirated and cells were lysed in 10 μL lysis buffer with protease and phosphatase inhibitors (PerkinElmer, cat #ALSU-PEGFR-A50K). The plates were placed on a shaker for 5 minutes and then incubated for 30 min at 4° C. for complete lysis. The lysate was transferred to an Optiplate (Perkin Elmer, cat #6007290).
Acceptor mix (PerkinElmer, cat #ALSU-PEGFR-A50K) was prepared just before use and 5 μL was dispensed to all the wells, followed by a 1.5-2 h incubation at room temperature in dark. The donor mix (PerkinElmer, cat #ALSU-PEGFR-A50K) was prepared under low light conditions prior to use and 5 μl of donor mix was added to all the wells under subdued lighting or green filters. The plates were placed on a shaker for 5 min, sealed, and incubated overnight at room temperature in dark. Plates were read on the Envision (PerkinElmer) using standard AlphaLISA settings.
The percentage of inhibition on EGFR phosphorylation was calculated following equation: % Inhibition=100×(LumHC−LumSample)/(LumHC−LumLC). The low and high controls (LC/HC) are generated from lysate from wells with cells treated with DMSO or […] Staurosporine (BioAustralis, cat #BIA-S1086), […]. IC50 values were calculated by fitting the Curve using XLfit (v5.3.1.3), equation 201: Y=Bottom+(Top−Bottom)/(1+10^((LogIC50−X)*HillSlope)).

phosphorylated ERBB2 (pERBB2), sequence (P04626 23-1255): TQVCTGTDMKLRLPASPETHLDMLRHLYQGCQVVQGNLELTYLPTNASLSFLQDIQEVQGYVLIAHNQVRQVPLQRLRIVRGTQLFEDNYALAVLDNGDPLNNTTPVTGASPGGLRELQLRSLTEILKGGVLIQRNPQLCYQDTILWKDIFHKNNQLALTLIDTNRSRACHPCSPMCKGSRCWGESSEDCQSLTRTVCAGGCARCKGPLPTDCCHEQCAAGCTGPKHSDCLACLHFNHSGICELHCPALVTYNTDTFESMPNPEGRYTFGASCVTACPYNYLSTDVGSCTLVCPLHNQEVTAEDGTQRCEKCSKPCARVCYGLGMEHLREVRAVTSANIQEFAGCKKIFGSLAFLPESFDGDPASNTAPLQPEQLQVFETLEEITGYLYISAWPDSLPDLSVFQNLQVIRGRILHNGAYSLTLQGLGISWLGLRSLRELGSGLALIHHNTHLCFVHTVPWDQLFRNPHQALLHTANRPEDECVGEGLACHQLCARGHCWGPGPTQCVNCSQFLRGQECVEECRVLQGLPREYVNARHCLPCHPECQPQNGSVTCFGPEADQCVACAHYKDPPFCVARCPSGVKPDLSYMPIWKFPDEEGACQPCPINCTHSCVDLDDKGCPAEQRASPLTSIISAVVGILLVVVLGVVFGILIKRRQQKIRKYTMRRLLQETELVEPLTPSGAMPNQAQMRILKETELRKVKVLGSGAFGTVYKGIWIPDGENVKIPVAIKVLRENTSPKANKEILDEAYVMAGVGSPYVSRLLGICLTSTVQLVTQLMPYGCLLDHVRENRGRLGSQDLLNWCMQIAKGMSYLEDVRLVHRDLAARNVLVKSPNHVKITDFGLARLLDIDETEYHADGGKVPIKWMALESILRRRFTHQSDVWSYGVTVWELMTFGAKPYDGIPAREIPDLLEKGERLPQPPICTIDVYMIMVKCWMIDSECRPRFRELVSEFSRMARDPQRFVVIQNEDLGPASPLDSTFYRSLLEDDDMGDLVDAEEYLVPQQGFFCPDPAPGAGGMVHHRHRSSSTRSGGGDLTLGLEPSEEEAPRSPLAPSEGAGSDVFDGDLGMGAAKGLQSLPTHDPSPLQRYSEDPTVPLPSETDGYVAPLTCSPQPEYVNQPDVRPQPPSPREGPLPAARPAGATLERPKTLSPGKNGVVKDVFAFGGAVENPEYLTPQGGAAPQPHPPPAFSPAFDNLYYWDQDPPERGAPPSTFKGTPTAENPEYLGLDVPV

SMILES	IC50 [1] [nM]	IC50 [2] [nM]
Cc1cc(Nc2ncnc3cc4c(cc23)N2CCN(C(=O)/C=C/CN(C)C)C(CO4)C2)ccc1Oc1ccc2c(c1)ncn2C (stereo in doubt) [Compound 7, (E)-4-(dimethylamino)-1-((10S)-4-((3-methyl-4-((1-methyl-1H-benzo[d]imidazol-5-yl)oxy)phenyl)amino)-7,8,10,11-tetrahydro-9H-6,10-methano[1,4,7]oxadiazonino[3,2-g]quinazolin-9-yl)but-2-en-1-one]	41.3	> 10000
Cc1cc(Nc2ncnc3cc4c(nc23)N2CCN(C(=O)/C=C/CN(C)C)C(CO4)C2)ccc1Oc1ccn2ncnc2c1 (stereo in doubt) [Compound 10, (E)-1-((10S)-4-((4-([1,2,4]triazolo[1,5-a]pyridin-7-yloxy)-3-methylphenyl)amino)-7,8,10,11-tetrahydro-9H-6,10-methanopyrimido[4′,5′:5,6]pyrido[3,2-b][1,4,7]oxadiazonin-9-yl)-4-(dimethylamino)but-2-en-1-one]	5.2	3040
Cc1cc(Nc2ncnc3cc4c(nc23)N2CCN(C(=O)/C=C/CN(C)C)C(CO4)C2)ccc1Oc1ccn2ncnc2c1 (stereo in doubt) [Compound 15, (E)-1-((10R)-4-((4-([1,2,4]triazolo[1,5-a]pyridin-7-yloxy)-3-methylphenyl)amino)-7,8,10,11-tetrahydro-9H-6,10-methanopyrimido[4′,5′:5,6]pyrido[3,2-b][1,4,7]oxadiazonin-9-yl)-4-(dimethylamino)but-2-en-1-one]	343	> 10000
CC#CC(=O)N1CCN2CC1COc1cc3ncnc(Nc4ccc(Oc5ccn6ncnc6c5)c(C)c4)c3nc12 (stereo in doubt) [Compound 18, 1-((10S)-4-((4-([1,2,4]triazolo[1,5-a]pyridin-7-yloxy)-3-methylphenyl)amino)-7,8,10,11-tetrahydro-9H-6,10-methanopyrimido[4′,5′:5,6]pyrido[3,2-b][1,4,7]oxadiazonin-9-yl)but-2-yn-1-one]	62.8	4430
C=C(F)C(=O)N1CCN2CC1COc1cc3ncnc(Nc4ccc(Oc5ccn6ncnc6c5)c(C)c4)c3nc12 (stereo in doubt) [Compound 23, 1-((10S)-4-((4-([1,2,4]triazolo[1,5-a]pyridin-7-yloxy)-3-methylphenyl)amino)-7,8,10,11-tetrahydro-9H-6,10-methanopyrimido[4′,5′:5,6]pyrido[3,2-b][1,4,7]oxadiazonin-9-yl)-2-fluoroprop-2-en-1-one]	209	> 10000
Cc1cc(Nc2ncnc3cc4c(nc23)N2CCN(C(=O)/C=C/CN(C)C)C(CO4)C2)c(F)cc1Oc1ccn2ncnc2c1 (stereo in doubt) [Compound 24, (E)-1-((10S)-4-((4-([1,2,4]triazolo[1,5-a]pyridin-7-yloxy)-2-fluoro-5-methylphenyl)amino)-7,8,10,11-tetrahydro-9H-6,10-methanopyrimido[4′,5′:5,6]pyrido[3,2-b][1,4,7]oxadiazonin-9-yl)-4-(dimethylamino)but-2-en-1-one]	8.38	2160
C=CC(=O)N1CCN2C[C@@H]1COc1cc3ncnc(Nc4ccc(Cc5ccn6ncnc6c5)c(C)c4)c3nc12 [Compound 19, 1-((10R)-4-((4-([1,2,4]triazolo[1,5-a]pyridin-7-ylmethyl)-3-methylphenyl)amino)-7,8,10,11-tetrahydro-9H-6,10-methanopyrimido[4′,5′:5,6]pyrido[3,2-b][1,4,7]oxadiazonin-9-yl)prop-2-en-1-one]	1930	–
Cc1cc(Nc2ncnc3ccc(NC4=NC(C)(C)CO4)cc23)ccc1Oc1ccn2ncnc2c1 [Tucatinib, tucatinib, reference compound]	12	–

Results, then the compound that gave them:

IC50 [1] [nM]	IC50 [2] [nM]	SMILES
34.2	2190	Cc1cc(Nc2ncnc3cc4c(nc23)N2CCN(C(=O)/C=C/CN(C)C)C(CO4)C2)ccc1Oc1ccc2c(c1)ncn2C (stereo in doubt) [Compound 6, (E)-4-(dimethylamino)-1-((10S)-4-((3-methyl-4-((1-methyl-1H-benzo[d]imidazol-5-yl)oxy)phenyl)amino)-7,8,10,11-tetrahydro-9H-6,10-methanopyrimido[4′,5′:5,6]pyrido[3,2-b][1,4,7]oxadiazonin-9-yl)but-2-en-1-one]
18.9	> 10000	Cc1cc(Nc2ncnc3cc4c(cc23)N2CCN(C(=O)/C=C/CN(C)C)C(CO4)C2)ccc1Oc1ccn2ncnc2c1 (stereo in doubt) [Compound 9, (E)-1-((10S)-4-((4-([1,2,4]triazolo[1,5-a]pyridin-7-yloxy)-3-methylphenyl)amino)-7,8,10,11-tetrahydro-9H-6,10-methano[1,4,7]oxadiazonino[3,2-g]quinazolin-9-yl)-4-(dimethylamino)but-2-en-1-one]
103	> 10000	CC#CC(=O)N1CCN2CC1COc1cc3ncnc(Nc4ccc(Oc5ccc6c(c5)ncn6C)c(C)c4)c3cc12 (stereo in doubt) [Compound 11, 1-((10S)-4-((3-methyl-4-((1-methyl-1H-benzo[d]imidazol-5-yl)oxy)phenyl)amino)-7,8,10,11-tetrahydro-9H-6,10-methano[1,4,7]oxadiazonino[3,2-g]quinazolin-9-yl)but-2-yn-1-one]
42.8	7060	CC#CC(=O)N1CCN2CC1COc1cc3ncnc(Nc4ccc(Oc5ccn6ncnc6c5)c(C)c4)c3cc12 (stereo in doubt) [Compound 12, 1-((10S)-4-((4-([1,2,4]triazolo[1,5-a]pyridin-7-yloxy)-3-methylphenyl)amino)-7,8,10,11-tetrahydro-9H-6,10-methano[1,4,7]oxadiazonino[3,2-g]quinazolin-9-yl)but-2-yn-1-one]
242	> 10000	CC#CC(=O)N1CCN2CC1COc1cc3ncnc(Nc4ccc(Oc5ccc6c(c5)ncn6C)c(C)c4)c3nc12 (stereo in doubt) [Compound 16, 1-((10S)-4-((3-methyl-4-((1-methyl-1H-benzo[d]imidazol-5-yl)oxy)phenyl)amino)-7,8,10,11-tetrahydro-9H-6,10-methanopyrimido[4′,5′:5,6]pyrido[3,2-b][1,4,7]oxadiazonin-9-yl)but-2-yn-1-one]
25	621	Cc1ccc(Oc2ccc(Nc3ncnc4cc5c(nc34)N3CCN(C(=O)/C=C/CN(C)C)C(CO5)C3)cc2C)cn1 (stereo in doubt) [Compound 21, (E)-4-(dimethylamino)-1-((10S)-4-((3-methyl-4-((6-methylpyridin-3-yl)oxy)phenyl)amino)-7,8,10,11-tetrahydro-9H-6,10-methanopyrimido[4′,5′:5,6]pyrido[3,2-b][1,4,7]oxadiazonin-9-yl)but-2-en-1-one]
5.54	338	Cc1cc(Nc2ncnc3cc4c(nc23)N2CCN(C(=O)/C=C/CN(C)C)C(CO4)C2)ccc1Oc1cccnc1 (stereo in doubt) [Compound 25, (E)-4-(dimethylamino)-1-((10S)-4-((3-methyl-4-(pyridin-3-yloxy)phenyl)amino)-7,8,10,11-tetrahydro-9H-6,10-methanopyrimido[4′,5′:5,6]pyrido[3,2-b][1,4,7]oxadiazonin-9-yl)but-2-en-1-one]
